Assay results reported in US11963998B2, “Modulation of heparin-binding epidermal growth factor activity for tympanic membrane healing” (The Board of Trustees of the Leland Stanford Junior …, priority 2013, dated 2024).

B1: HB-EGF: recombinant heparin binding epidermal growth factor, delivered in a bioabsorbable chitosan-based polymer gel at 5 μg/ml (protein, UniProt Q99075 63-148, looked up)
Heparin-binding EGF-like …: DLQEADLDLLRVTLSSKPQALATPNKEEHGKRKKKGKGLGKKRDPCLRKYKDFCIHGECKYVKELRAPSCICHPGYHGERCHGLSL
modifications: Heparin-binding EGF-like growth factor in chitosan-based gel

Assays:
[1] = test system: acute tympanic perforations in mice; experiment: HB-EGF inhibitor applied to acute tympanic membrane perforations (chronic TM perforation model); format: in vivo; conditions: for Perforations open at 2 months / Perforations open at 3 months: mice, OSU8-1 10 mM on gel foam over seven days
Description: EGFR ligand shedding can be inhibited to create a chronic tympanic membrane perforation model. Subtotal perforations were created in the pars tensa of TMs in 20 mice using a curved needle. OSU8.1 (10 mM), a selective HB-EGF inhibitor (see Tokumaru et al. (2000) J. Cell Biol.), was injected onto gel foam (placed through and onto the perforation) over seven days. Mice were sacrificed at time points (Day 2, 7, 14, 30, 44, 60 and 90) to observe the effects on keratinocyte migration. The contralateral ear was used as a control with saline placed onto gel foam. All of these were closed within 2 weeks. Five of seven (71%) of the treatment ears were open at three months. Perforation size was stable over three months (using ImageJ to calculate the perforation area as a percentage of the pars tensa area). A larger cohort was undertaken with 87.9% (n=58) having chronic perforations at 3 months.
100% of HB-EGF inhibitor treated perforations were present at two months compared to 5% of controls and 71% were present at three months compared to 5% of controls

[2] = test system: chronic perforations in mice ears; experiment: HB-EGF treatment of chronic tympanic membrane perforations; format: in vivo; conditions: 40 μl gel, 5 μg/ml, sustained release chitosan-based polymer; at 4 weeks; p<0.01 vs polymer only
Description: HB-EGF heals chronic tympanic membrane perforations. When a cohort of chronic perforations in mice ears were treated with 40 μl of a gel containing recombinant HB-EGF at a concentration of 5 μg/ml (sustained release dose via a bioabsorbable chitosan-based polymer) 92% (22 of 24) healed, compared to 38% (10 of 26) of controls (polymer only) at 4 weeks (p<0.01). […] This is the first growth factor treatment tested in an animal model of chronic perforation that has shown significant benefit over control.

[3] = test system: chronic perforations and ET occlusion in mice; experiment: HB-EGF treatment of chronic TM perforations with Eustachian tube occlusion; format: in vivo
Description: HB-EGF heals chronic tympanic membrane perforations with Eustachian tube occlusion. An existing rat model of ET occlusion (see Herda et al. (2002) Laryngoscope 112:1657-62) was adapted to the mouse and has since been performed in 80 live mice with success. The ET occlusion was performed with the chronic perforation model described above. This created a wet sterile discharging perforation at 3 months. This model mimics the human condition of chronic perforation combined with ET dysfunction.
When a cohort of mice with this model (chronic perforations and ET occlusion) were treated with recombinant HB-EGF, 40 μl at a concentration of 5 μg/ml (sustained release dose via a bioabsorbable chitosan polymer) 94% (18 of 19) healed compared to 9% (2 of 23) of controls (polymer only) at 6 weeks (p<0.01). […] The ability to overcome this critical step in TM chronic wound healing using HB-EGF to activate EGFR ectodomain ligand shedding in the presence of middle ear effusions and ET occlusion is useful in treating patients with chronic tympanic membrane perforation.

[4] = test system: chronic perforation model with ET occlusion inoculated with Pseudomonas aeruginosa; experiment: HB-EGF treatment in animal model for chronic suppurative otitis media (CSOM); format: in vivo, mice; conditions: polymer and HB-EGF at 5 μg/ml
Source text: Testing in an animal model for chronic suppurative otitis media. After creating the chronic perforation model with ET occlusion, Pseudomonas aeruginosa (dose of 6×10^9 colony forming units per ml) were inoculated into the middle ear through the existing chronic perforations. At 2 weeks the ear fluid was collected and sent for polymerase chain reaction (PCR) to confirm the presence of bacteria. This positive PCR validated the CSOM model. The mice were then divided into two cohorts. One received polymer only. The other received polymer and HB-EGF at 5 μg/ml (same dose used in above models). 100% of the HB-EGF group healed (16 of 16) compared to 41% (7/17) in the control group (p<0.01). In the control group the healing was also different when it did occur. The TM was often very thin and transluscent compared to a slightly opaque normal TM. […] The ability to still overcome this critical step in TM chronic wound healing using HB-EGF to activate EGFR ectodomain ligand in the closest model to human CSOM validates the method of treatment.

Molecule	chronic perforations at 3 months, larger cohort ([1]; larger cohort, n=58, 3 months) [%]	Perforations open at 2 months [1] [%]	Perforations open at 2 months ([1]; listed as HB-EGF inhibitor) [%]	Perforations open at 3 months ([1]; 3 months) [%]	Perforations open at 3 months ([1]; 3 months, listed as HB-EGF inhibitor) [%]	Perforations open at 3 months ([1]; 3 months, listed as OSU8.1) [%]	Perforation size (perforation area as a percentage of the pars tensa area) ([1]; over three months, ImageJ)	chronic perforations healed [2] [%]	chronic perforations with ET occlusion healed ([3]; 40 μl at 5 μg/ml, sustained release chitosan polymer, at 6 weeks, p<0.01 vs polymer only) [%]	histology of perforation closure ([3]; chronic perforations and ET occlusion model)	appearance of healing in CSOM model [4]	perforations healed in CSOM model ([4]; p<0.01 vs polymer only) [%]
CNC(=O)[C@@H](NC(=O)[C@H](CC(C)C)[C@H](C)C(=O)NO)c1ccccc1 [OSU8-1]	87.9	100	100	71	71	71	stable					
B1								92	94	close with thick layer of keratinocytes	appeared normal	100
